16 compounds from US20030045557A1, “Thiadiazoles and oxadiazoles and their use as phosphodiesterase-7 inhibitors” (priority 2000, published 2003) can be followed below.

Structures are written as SMILES. Structures can show the parent of a compound that is named as a salt.

T1 sequence (Q13946 whole entry, species assumed): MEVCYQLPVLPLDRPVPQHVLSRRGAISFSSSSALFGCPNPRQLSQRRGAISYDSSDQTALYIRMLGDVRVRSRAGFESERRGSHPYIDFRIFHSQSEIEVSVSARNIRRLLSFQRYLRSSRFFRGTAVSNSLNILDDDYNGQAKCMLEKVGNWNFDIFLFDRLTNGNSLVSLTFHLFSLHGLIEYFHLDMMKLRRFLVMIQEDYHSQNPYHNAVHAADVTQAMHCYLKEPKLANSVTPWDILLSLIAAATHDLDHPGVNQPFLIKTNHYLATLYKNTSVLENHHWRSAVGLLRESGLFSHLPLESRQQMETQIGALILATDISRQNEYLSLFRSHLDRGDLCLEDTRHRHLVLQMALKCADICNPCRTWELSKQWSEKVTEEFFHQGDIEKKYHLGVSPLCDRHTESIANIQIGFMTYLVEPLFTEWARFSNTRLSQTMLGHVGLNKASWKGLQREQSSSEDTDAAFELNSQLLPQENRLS

The assay has as its target T1, PDE7A1 (Homo sapiens, UniProt Q13946).
T1 construct: made in house; host or cells: Sf21 insect cells (baculovirus expression system)
Description: In vitro inhibition of phosphodiesterase 7 (enzymatic activity, cAMP substrate 50 nM). In kind it is biochemical. To be noted: PDE7A1 expressed in Sf 21 insect cells; cAMP 50 nM; reaction 10 minutes; read-out: IC50 (PDE7). The protocol:
The capacity of the compounds of the invention to inhibit cyclic nucleotide phosphodiesterases was evaluated by measuring their IC50 (concentration necessary to inhibit the enzymatic activity by 50%).
PDE3A3, PDE4D3, and PDE7A1 were cloned and expressed in insect cells Sf 21 using the baculovirus expression system. The source of PDE103 and of PDE503 were human cell lines (respectively TPH1 human monocytes and MCF7 human breast adenocarcinoma). The various types of phosphodiesterases were obtained partially purified on an anion exchange column (Mono Q) according to a method adapted from Lavan B. E., Lakey T., Houslay M.D., Biochemical Pharmacology, 1989;38(22):4123-4136.
Measurement of the enzymatic activity for the various types of PDE was then made according to a method adapted from Thompson W. J. et al., Advances in Cyclic Nucleotide Research, ed. G. Brooker et al. New York: Raven Press, 1979;10:69-92.
The substrate used was cGMP for PDE1 and PDE5 and cAMP for PDE3, PDE4, and PDE7. The substrate concentration was 0.2 μM for PDE1, PDE3, and PDE5, 0.25 μM for PDE4, and 50 nM for PDE7.
The enzymatic reaction was stopped after 1 hour for PDE1, PDE3, and PDE5 and 10 minutes for PDE4 and PDE7.
As usually defined, the IC50 is the concentration that gives 50% inhibition. For the compound `Cn1nc(-c2ccc(-c3ccccn3)s2)s/c1=N\C1CCCCC1` [I18,2, Cyclohexyl-[3-methyl-5-(5-pyridin-2-yl-thiophen-2-yl)-3H-[1,3,4]thiadiazol-2-ylidene]-amine], the IC50 is 320 nM.
Take `COc1c(O)cc(-c2nn(C)/c(=N/C3CCCCC3)s2)cc1O` [I18,3, 5-(5-Cyclohexylimino-4-methyl-4,5-dihydro[1,3,4]thiadiazol-2yl)-2-methoxy-benzene-1,3-diol; compound with trifluoro-methanesulfonic acid]: the IC50 came to 61 nM.
Regarding `COc1cc(-c2nn(C)/c(=N/C3CCCCC3)s2)cc(O)c1OC` [I18,4, 5-(5-Cyclohexylimino-4-methyl-4,5-dihydro[1,3,4]thiadiazol-2-yl)-2,3-dimethoxy-phenol;compound with trifluoro-methanesulfonic Acid], the IC50 was determined as 92 nM.
With `Cn1nc(-c2ccc(Cl)cc2)s/c1=N\C1CCCCC1` [I18,5, [5-(4-Chloro-phenyl)-3-methyl-3H-[1,3,4]thiadiazol-2-ylidene]-cyclohexyl-amine], the IC50 is 1200 nM.
`Cn1nc(-c2cccc(C(=O)O)c2)s/c1=N\C1CCCCC1` [I21,1, 3-(5-Cyclohexylimino-4-methyl-4,5-dihydro-[1,3,4]thiadiazol-2-yl)-benzoic acid]: the IC50 amounted to 870 nM.
For the compound `Cn1nc(-c2ccc(C(=O)O)cc2)s/c1=N\C1CCCCC1` [I37,1, 4-(5-Cyclohexylimino-4-methyl-4,5-dihydro-[1,3,4]thiadiazol-2-yl)-benzoic acid], the IC50 came out at 550 nM.
With `Cn1nc(-c2ccc(C(=O)NO)cc2)s/c1=N\C1CCCCC1` [I37,2, 4-(5-Cyclohexylimino-4-methyl-4,5-dihydro-[1,3,4]thiadiazol-2-yl)-N-hydroxy-benzamide], the IC50 is 1200 nM.
With `Cn1nc(-c2ccc(C(N)=O)cc2)s/c1=N\C1CCCCC1` [I37,3, 4-(5-Cyclohexylimino-4-methyl-4,5-dihydro-[1,3,4]thiadiazol-2-yl)-benzamide] the figure was 62 nM; with `Cn1nc(-c2ccc(C(=O)Nc3nn[nH]n3)cc2)s/c1=N\C1CCCCC1` [I37,4, 4-(5-Cyclohexylimino-4-methyl-4,5-dihydro-[1,3,4]thiadiazol-2-yl)-N-(2H-tetrazol-5-yl)-benzamide hydrochloride salt], 150 nM; with `Cn1nc(-c2ccc(C(=O)Nc3cccc4cccnc34)cc2)s/c1=N\C1CCCCC1` [I37,5, 4-(5-Cyclohexylimino-4-methyl-4,5-dihydro[1,3,4]thiadiazol-2-yl)-N-quinolin-8-yl-benzamide], 93 nM.
Then `COc1ccc(NC(=O)c2ccc(-c3nn(C)/c(=N/C4CCCCC4)s3)cc2)c(OC)n1` [I37,6, 4-(5-Cyclohexylimino-4-methyl-4,5-dihydro[1,3,4]thiadiazol-2-yl)-N-(2,6-dimethoxy-pyridin-3-yl)-benzamide], with 97 nM; and `CC(C)NC(=O)c1ccc(-c2nn(C)/c(=N/C3CCCCC3)s2)cc1` [I37,7, 4-(5-Cyclohexylimino-4-methyl-4,5-dihydro[1,3,4]thiadiazol-2-yl)-N-isopropyl-benzamide], with 86 nM.
With `CCNC(=O)c1ccc(-c2nn(C)/c(=N/C3CCCCC3)s2)cc1` [I37,8, 4-(5-Cyclohexylimino-4-methyl-4,5-dihydro[1,3,4]thiadiazol-2-yl)-N-ethyl-benzamide], the half-inhibitory concentration (IC50) came to 64 nM.
Then `CN(C)CCNC(=O)c1ccc(-c2nn(C)/c(=N/C3CCCCC3)s2)cc1` [I37,9, 4-(5-Cyclohexylimino-4-methyl-4,5-dihydro[1,3,4]thiadiazol-2-yl)-N-(2-dimethylamino-ethyl)-benzamide], with 75 nM.
For `Cn1nc(-c2ccc(C(=O)NCc3ccncc3)cc2)s/c1=N\C1CCCCC1` [I37,10, 4-(5-Cyclohexylimino-4-methyl-4,5-dihydro[1,3,4]thiadiazol-2-yl)-N-pyridin-4-ylmethyl-benzamide], the IC50 came to 44 nM.
With `CN1CCC(N(C)C(=O)c2ccc(-c3nn(C)/c(=N/C4CCCCC4)s3)cc2)CC1` [I37,11, 4-(5-Cyclohexylimino-4-methyl-4,5-dihydro-[1,3,4]thiadiazol-2-yl)-N-methyl-N-(1-methyl-piperidin-4-yl)-benzamide] the figure was 72 nM.
